Experimental findings from patent publication US20260241013A1, “TARGETED PROTEIN DEGRADATION USING PRODRUGS OF BIFUNCTIONAL COMPOUNDS THAT BIND UBIQUITIN LIGASE AND A TARGET MCL-1 PROTEIN” (Captor Therapeutics S.A., priority 2022, published 2026) are described below.

Like-named read-outs stand apart in the source and are kept apart here.

Format in all cases: cell-based
For one data set, the target named is T1, CRBN (Homo sapiens, UniProt Q96SW2).
T1 construct: host or cells: HEK293 (NanoLuc CRBN HEK293 cells)
T1 sequence (Q96SW2 whole entry): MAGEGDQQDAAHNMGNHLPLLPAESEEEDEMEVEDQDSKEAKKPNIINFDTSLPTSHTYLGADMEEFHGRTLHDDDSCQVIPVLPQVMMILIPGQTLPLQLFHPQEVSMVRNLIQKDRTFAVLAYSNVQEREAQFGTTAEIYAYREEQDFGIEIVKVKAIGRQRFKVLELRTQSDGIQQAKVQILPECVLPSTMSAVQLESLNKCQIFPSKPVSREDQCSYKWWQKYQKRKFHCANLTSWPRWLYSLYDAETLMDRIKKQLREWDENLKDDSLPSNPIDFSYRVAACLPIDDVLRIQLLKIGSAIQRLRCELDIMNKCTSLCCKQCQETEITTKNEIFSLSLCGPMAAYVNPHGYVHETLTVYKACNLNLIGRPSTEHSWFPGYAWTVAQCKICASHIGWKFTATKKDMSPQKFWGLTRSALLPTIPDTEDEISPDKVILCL
Description: NanoBRET In-cell CRBN Target Engagement Assay (live and lytic mode), NanoLuc CRBN HEK293 cells. Here is the method:
Commercially available, NanoBRET In-cell CRBN Target Engagement Assay (NanoBRET CRBN TE Assay), which uses NanoLuc CRBN HEK293 cells and NanoBRET In-cell CRBN Tracer was used (N2910, N2912, PROMEGA) to determine the cell membrane permeability of prodrugs of MCL-1 degraders.
The assay was run in 96-well plate format (cat. 3600, Corning). NanoLuc CRBN HEK293 cells were treated with CRBN Tracer and compounds. Briefly, prepared was cell suspension (0.17×10^6cells/ml) in Opti-MEM without phenol red (Life Technologies). The cells were treated with CRBN Tracer (20× concentrated, 5 μl/well. For the live mode: 0.8 μM and for the lytic: 0.17 μM final concentration) or DMSO vehicle control (20× concentrated, 5 μl/well). Such prepared cells were seeded into the wells of 96-well plate on top of compounds (100× concentrated, 1 μl/well; 11-point 2-fold dilution) pre-plated on them with the help of Echo 555 acoustic dispenser (Labcyte). For the lytic mode assay, Digitonin (0.05 mg/ml, 10× concentrated, 10 μl/well) was added additionally. In the live mode assay, the plate was incubated at 37° C., 5% CO2 for 2 hours, and then at room temperature for 15 minutes to cool down. In the lytic mode assay, there was no incubation. The 3×Complete NanoBRET reagent (50 μl/well) was prepared according to the manufacturer's recommendations, appropriately for live and lytic mode. The plate was incubated for 2 minutes at room temperature and the luminescence and fluorescence readings followed using CLARIOstar Multimode Plate Reader (donor emission RLU—450 nm; acceptor emission RFU—610 nm). RBA value is an indicator of cell membrane permeability (the lower, the better) is calculated from absolute pIC50 (the negative log of the absolute IC50 value when converted to molar) of the live mode assay (pIC50 Live) and the lytic mode assay (pIC50 Lytic).
(In BRET a luciferase serves as donor, and the signal depends on an acceptor being close.)

The subject of a further data set is MV4-11 cells. Description: Cell viability assay (CellTiter-Glo, CTG protocol), MV4-11. The conditions noted are these: Homo sapiens, MV4-11 (MCL-1 dependent AML line), 24 hours incubation, 1% FBS, read-out: Average pCC50 by molecule MV4-11 (converted). From the text: (§1) The effect of various compounds of the invention on the viability of MV4-11 and ARH-77 cell lines was investigated, using the CTG protocol described below.
(§2) MV4-11 cell lines are derived from acute myeloid leukaemia and it is described in the literature as a MCL-1 dependent cell line, as opposed to lymphoblast-like ARH-77 cell line, which is described as independent of MCL-1 (Tron A E et al. Nat Commun. 2018; 9: 5341; Caenepeel S et al. Cancer Discov. 2018 December; 8(12): 1582-1597).
(§3) Cells (MV4-11 or ARH-77) were seeded on […] in a growth medium with 1% FBS. Next, compound stocks were pre-diluted in DMSO and added directly to the cell culture media (final DMSO concentration: 0.5%). Compound concentrations used in this assay: 1/3 dilutions starting at 30 μM (9 to 12 points). After 24 hours of incubation, cell viability was evaluated using CellTiter-Gob® Luminescent Cell Viability Assay (Promega, cat #G7572). The luminescence signal was measured using a CLARIOstar Plus Multi-Mode Microplate Reader (574-590 nm).
(§4) Results were normalized to DMSO control. Collected data were analyzed using GraphPad Prism to calculate pCC50 values (i.e. the negative log of the CC50 value). CC50 (50% cytotoxic concentration) is the effective concentration of a cytotoxic compound, which produces 50% of the maximum possible cell death (i.e. the concentration of the compound which is required in order to reduce cell viability by 50%). CC50 is often used rather than IC50 in cell toxicity assays.

The nature of data set [1]: Cell viability assay (CellTiter-Glo, CTG protocol), ARH-77. The following applies: human, ARH-77 cells (lymphoblast-like), ARH-77 (MCL-1 independent line), 24 hours incubation, 1% FBS, read-out: Average pCC50 by molecule ARH-77 (converted).
From the text: as §1, §2, §3, §4
(In general: In ATP-based viability assays light output follows the ATP content of the culture.)

Where [2] appears, read: live mode, intact cells, 2 hours at 37° C., read-out: pIC50 (live) (converted).
The mark [3] stands for this setting: lytic mode, digitonin-lysed cells, no incubation, read-out: pIC50 (lytic) (converted).

Consider `Cc1nn(C)c(C)c1-c1c(Cl)ccc2c(CCCOc3cccc4cc(F)ccc34)c(C(=O)OCOC(=O)CCO)n(CCN3CCN(C(=O)COc4cccc5c4CN(C4CCC(=O)NC4=O)C5=O)CC3)c12` (centres unmarked) [Compound 43], for which the values for the IC50 on CRBN (setting [2]) and at CRBN (setting [3]) were 39.8 nM and 79.4 nM, respectively. Further, the CC50 in the data set on MV4-11 cells is less than 3.16 nM. Further, the CC50 at 24 h in data set [1] is greater than 3160 nM.

In the case of `Cc1nn(C)c(C)c1-c1c(Cl)ccc2c(CCCOc3cccc4cc(F)ccc34)c(C(=O)OCOC(=O)C3CCNCC3)n(CCN3CCN(C(=O)COc4cccc5c4CN(C4CCC(=O)NC4=O)C5=O)CC3)c12` (centres unmarked) [Compound 55, ((Piperidine-4-carbonyl)oxy)methyl 6-chloro-1-(2-(4-(2-((2-(2,6-dioxopiperidin-3-yl)-1-oxoisoindolin-4-yl)oxy)acetyl)piperazin-1-yl)ethyl)-3-(3-((6-fluoronaphthalen-1-yl)oxy)propyl)-7-(1,3,5-trimethyl-1H-pyrazol-4-yl)-1H-indole-2-carboxylate], in the data set with MV4-11 cells, the CC50 is less than 100 nM. The CC50 at 24 h in data set [1] was greater than 10000 nM.

Regarding `COCCOCC(=O)OCOC(=O)c1c(CCCOc2cccc3cc(F)ccc23)c2ccc(Cl)c(-c3c(C)nn(C)c3C)c2n1CCN1CCN(C(=O)COc2cccc3c2CN(C2CCC(=O)NC2=O)C3=O)CC1` (centres unmarked) [Compound 57, (2-(2-Methoxyethoxy)acetoxy)methyl 6-chloro-1-(2-(4-(2-((2-(2,6-dioxopiperidin-3-yl)-1-oxoisoindolin-4-yl)oxy)acetyl)piperazin-1-yl)ethyl)-3-(3-((6-fluoronaphthalen-1-yl)oxy)propyl)-7-(1,3,5-trimethyl-1H-pyrazol-4-yl)-1H-indole-2-carboxylate], the CC50 with MV4-11 cells was less than 10 nM. The CC50 at 24 h in data set [1] was greater than 10000 nM.

As for `Cc1nn(C)c(C)c1-c1c(Cl)ccc2c(CCCOc3cccc4cc(F)ccc34)c(C(=O)OCOC(=O)C(C)(C)C)n(CCN3CCN(C(=O)Cn4c(C)nc5c(C(=O)NC6CCC(=O)NC6=O)cccc54)CC3)c12` (centres unmarked) [Compound 70, (6-Chloro-1-{2-[4-(2-{4-[(2,6-dioxopiperidin-3-yl)carbamoyl]-2-methyl-1H-1,3-benzodiazol-1-yl}acetyl)piperazin-1-yl]ethyl}-3-{3-[(6-fluoronaphthalen-1-yl)oxy]propyl}-7-(1,3,5-trimethyl-1H-pyrazol-4-yl)-1H-indole-2-carbonyloxy)methyl 2,2-dimethylpropanoate], the IC50 on CRBN (setting [2]) is 25.1 nM; on CRBN (setting [3]) it was 7940 nM. The CC50 with MV4-11 cells is less than 10 nM. Besides, in data set [1], the CC50 at 24 h is greater than 31600 nM.

As to `Cc1nn(C)c(C)c1-c1c(Cl)ccc2c(CCCOc3cccc4cc(F)ccc34)c(C(=O)OCOC(=O)C(C)(C)C)n(CCN3CCC(CN4CCN(c5ccc6c(c5)CN([C@H]5CCC(=O)NC5=O)C6=O)CC4)CC3)c12` [Compound 71, (Pivaloyloxy)methyl (S)-6-chloro-1-(2-(4-((4-(2-(2,6-dioxopiperidin-3-yl)-1-oxoisoindolin-5-yl)piperazin-1-yl)methyl)piperidin-1-yl)ethyl)-3-(3-((6-fluoronaphthalen-1-yl)oxy)propyl)-7-(1,3,5-trimethyl-1H-pyrazol-4-yl)-1H-indole-2-carboxylate], the CC50 with MV4-11 cells was less than 100 nM. The CC50 at 24 h in data set [1] is greater than 10000 nM.

With `CC(=O)OC(C)OC(=O)c1c(CCCOc2cccc3cc(F)ccc23)c2ccc(Cl)c(-c3c(C)nn(C)c3C)c2n1CCN1CCN(C(=O)COc2cccc3c2CN(C2CCC(=O)NC2=O)C3=O)CC1` (centres unmarked) [Compound 75, 1-Acetoxyethyl 6-chloro-1-(2-(4-(2-((2-(2,6-dioxopiperidin-3-yl)-1-oxoisoindolin-4-yl)oxy)acetyl)piperazin-1-yl)ethyl)-3-(3-((6-fluoronaphthalen-1-yl)oxy)propyl)-7-(1,3,5-trimethyl-1H-pyrazol-4-yl)-1H-indole-2-carboxylate], the CC50 in the data set with MV4-11 cells was less than 10 nM. Further, the CC50 at 24 h in data set [1] was greater than 31600 nM.

Consider `Cc1nn(C)c(C)c1-c1c(Cl)ccc2c(CCCOc3cccc4cc(F)ccc34)c(C(=O)OC(C)OC(=O)OC(C)C)n(CCN3CCN(C(=O)COc4cccc5c4CN(C4CCC(=O)NC4=O)C5=O)CC3)c12` (centres unmarked) [Compound 99, 1-{[(Propan-2-yloxy)carbonyl]oxy}ethyl 6-chloro-1-{2-[4-(2-{[2-(2,6-dioxopiperidin-3-yl)-1-oxo-2,3-dihydro-1H-isoindol-4-yl]oxy}acetyl)piperazin-1-yl]ethyl}-3-{3-[(6-fluoronaphthalen-1-yl)oxy]propyl}-7-(1,3,5-trimethyl-1H-pyrazol-4-yl)-1H-indole-2-carboxylate], for which, in the data set on MV4-11 cells, the CC50 was less than 31.6 nM. In addition, in data set [1], the CC50 at 24 h was greater than 31600 nM.

With `Cc1nn(C)c(C)c1-c1c(Cl)ccc2c(CCCOc3cccc4cc(F)ccc34)c(C(=O)OC(C)OC(=O)OC3CCCCC3)n(CCN3CCN(C(=O)COc4cccc5c4CN(C4CCC(=O)NC4=O)C5=O)CC3)c12` (centres unmarked) [Compound 100, 1-(((Cyclohexyloxy)carbonyl)oxy)ethyl 6-chloro-1-(2-(4-(2-((2-(2,6-dioxopiperidin-3-yl)-1-oxoisoindolin-4-yl)oxy)acetyl)piperazin-1-yl)ethyl)-3-(3-((6-fluoronaphthalen-1-yl)oxy)propyl)-7-(1,3,5-trimethyl-1H-pyrazol-4-yl)-1H-indole-2-carboxylate], in the data set with MV4-11 cells, the CC50 was less than 31.6 nM. Also, in data set [1], the CC50 at 24 h is greater than 31600 nM.

On to `Cc1nn(C)c(C)c1-c1c(Cl)ccc2c(CCCOc3cccc4cc(F)ccc34)c(C(=O)OCCS(C)(=O)=O)n(CCN3CCN(C(=O)COc4cccc5c4CN(C4CCC(=O)NC4=O)C5=O)CC3)c12` (centres unmarked) [Compound 124, 2-(Methylsulfonyl)ethyl 6-chloro-1-(2-(4-(2-((2-(2,6-dioxopiperidin-3-yl)-1-oxoisoindolin-4-yl)oxy)acetyl)piperazin-1-yl)ethyl)-3-(3-((6-fluoronaphthalen-1-yl)oxy)propyl)-7-(1,3,5-trimethyl-1H-pyrazol-4-yl)-1H-indole-2-carboxylate], for which, in the data set with MV4-11 cells, the CC50 is less than 1000 nM. Besides, the CC50 at 24 h in data set [1] is greater than 31600 nM.

On to `Cc1nn(C)c(C)c1-c1c(Cl)ccc2c(CCCOc3cccc4cc(F)ccc34)c(C(=O)OCCN3CCOCC3)n(CCN3CCN(C(=O)COc4cccc5c4CN(C4CCC(=O)NC4=O)C5=O)CC3)c12` (centres unmarked) [Compound 129, 2-Morpholinoethyl 6-chloro-1-(2-(4-(2-((2-(2,6-dioxopiperidin-3-yl)-1-oxoisoindolin-4-yl)oxy)acetyl)piperazin-1-yl)ethyl)-3-(3-((6-fluoronaphthalen-1-yl)oxy)propyl)-7-(1,3,5-trimethyl-1H-pyrazol-4-yl)-1H-indole-2-carboxylate], for which the figures for the IC50 on CRBN (setting [2]) and on CRBN (setting [3]) were 316 nM and 355 nM, respectively.

Take `Cc1nn(C)c(C)c1-c1c(Cl)ccc2c(CCCOc3cccc4cc(F)ccc34)c(C(=O)OCCN3CCN(C)CC3)n(CCN3CCN(C(=O)COc4cccc5c4CN(C4CCC(=O)NC4=O)C5=O)CC3)c12` (centres unmarked) [Compound 133, 2-(4-Methylpiperazin-1-yl)ethyl 6-chloro-1-(2-(4-(2-((2-(2,6-dioxopiperidin-3-yl)-1-oxoisoindolin-4-yl)oxy)acetyl)piperazin-1-yl)ethyl)-3-(3-((6-fluoronaphthalen-1-yl)oxy)propyl)-7-(1,3,5-trimethyl-1H-pyrazol-4-yl)-1H-indole-2-carboxylate]: the figures for the IC50 on CRBN (setting [2]) and on CRBN (setting [3]) were 398 nM and 251 nM, respectively.
